pKd: −log10 of the molar value.

The target in experiment [1] is T1, SULT1A3 (Homo sapiens, UniProt P0DMM9).
T1 construct: E. coli–optimized SULT coding regions were inserted into a pGEX-6P expression vector; N-His/GST/MBP triple tag (PreScission-cleavable) (N, cleaved yes); made in house; host or cells: E. coli BL21(DE3)
Nature of the experiment: Equilibrium binding of CMP13 to SULT1A3 complexes (intrinsic fluorescence). The text has this: (§1) Figure 4 The inhibition mechanism. A, equilibrium binding. Binding was monitored via ligand-induced changes in SULT1A3 intrinsic fluorescence (λex = 290 nm, λem = 335 nm). […] Each dot represents the average of three independent titrations. Lines passing through the data represent the outcomes predicted by least-squares fitting of the averaged data to a single-binding-site model. B, representative PAP-binding reaction. PAP binding was monitored using a stopped-flow fluorimeter (λex = 290 nm, λem ≥ 330 nm (cutoff filter)). Reactions were initiated by rapidly mixing (1:1 v/v) a solution containing SULT1A3 (30 nM, dimer), CMP13 (1.0 μM, 100 × Kd), Tam (160 μM, 200 × Kd), KPO4 (50 mM), pH 7.5, 25(±2) °C, with a solution that was identical except that it lacked SULT1A3 and contained PAP (2.0 μM). The average of five independent progress curves shown and the kobs was obtained by fitting the data to a single exponential. C, pre–steady-state binding. PAP binding was monitored as described for panel B. Reactions were initiated by mixing (1:1 v/v) a solution containing SULT1A3 (30 nM, dimer), CMP13 [0 μM (black dots) or 1.0 μM, 100 × Kd (red and blue dots)], Tam [0 μM (black and blue dots) or 160 μM, 200 × Kd (red dots)], KPO4 (50 mM), pH 7.5, 25(±2) °C, with a solution that was identical except that it lacked SULT1A3 and contained PAP at twice the indicated concentrations. Each kobs value was determined in triplicate, and the averaged values are shown. kon and koff are given, respectively, by the slopes and intercepts obtained from linear least-squares fitting of the kobs vs [PAP] plot. PAP, 3′-phosphoadenosine-5′-phosphate; SULT1A3, sulfotransferase 1A3; Tam, 4-hydroxy-tamoxifen.
CMP13 binding to SULT1A3 was monitored via binding-induced changes in SULT1A3 intrinsic fluorescence (λex= 290 nm, λem= 335 nm ([17])). […] PAP binding was determined using the same protocol except that [PAP] was varied and CMP13 was 1.0 μM (100 × Ki). Titrations were performed in triplicate. Data were averaged and least-squares fit using a model that assumes a single binding site per monomer.

Experiment [2] deals with T1, SULT1A3. Nature of the experiment: Pre-steady-state (stopped-flow fluorescence) binding of PAP to SULT1A3 complexes. The settings on record: E·CMP13 vs E.
Text: as §1
To resolve this uncertainty, PAP on- and off-rate constants for a series of open and closed complexes were determined using stopped-flow fluorescence. A representative binding reaction can be seen in Fig. 4B. The binding reactions were pseudo-first order in [PAP], and kobs values were obtained by fitting reaction progress curves to a single-exponential equation. On- and off-rate constants (see Table 3) are given by the plot slopes and intercepts.
Pre–steady-state binding of PAP to SULT1A3 was monitored via ligand-induced changes in SULT1A3 fluorescence using an Applied Photophysics SX20 stopped-flow spectrofluorometer. Fluorescence was measured at λex = 290 nm and λem ≥ 330 nm (using a cutoff filter). […] All reactions were pseudo first order with respect to [PAP]. kobs values, determined in triplicate at each PAP concentration, were obtained by least-squares fitting the average of five progress curves to a single-exponential equation. kon and koff, obtained by linear least-squares fitting, are given by the slopes and intercepts of four-point kobs-vs-[PAP] plots.

T1 sequence (P0DMM9 whole entry): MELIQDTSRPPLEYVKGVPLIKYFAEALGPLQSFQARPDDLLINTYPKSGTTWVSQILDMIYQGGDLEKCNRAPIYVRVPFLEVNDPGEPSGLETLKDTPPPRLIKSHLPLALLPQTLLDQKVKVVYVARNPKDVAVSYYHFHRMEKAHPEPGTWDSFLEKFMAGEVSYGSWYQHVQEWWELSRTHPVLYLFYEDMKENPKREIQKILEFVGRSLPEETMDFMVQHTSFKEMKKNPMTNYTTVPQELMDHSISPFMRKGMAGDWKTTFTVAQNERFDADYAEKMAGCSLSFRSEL

The term pKd denotes the negative decadic logarithm of the Kd, by convention in mol/L. Turning to `CC(C)Cc1ccc2cc(/C=C/C(N)=O)cnc2n1` [CMP13], the pKd was 6.89 in experiment [1] (complex E (unliganded, cap-open)); 7.96 in experiment [1] (complex E·PAP (cap-closed), PAP 350 μM); 6.88 in experiment [1] (complex E·PAP·Tam (cap held open), PAP 350 μM, Tam 160 μM). For the same molecule, the “fold tighter binding to cap-closed E·PAP than to open form E” value in experiment [1] (ratio of Kd values) is 12 fold. Also, in experiment [2], the “fold decrease of the PAP off-rate constant caused by inhibitor” value is around 14 fold.

Source of the values: paper PMC7948405, “Small-molecule control of neurotransmitter sulfonation” (The Journal of Biological Chemistry, 2020).
